The values that follow are results of earlier work, collected in patent US7638270B2, “Nucleic acids and corresponding proteins entitled 254P1D6B useful in treatment and detection of cancer” (Agensys, Inc., priority 2003, dated 2009).

The data set concerns HLA-DR alleles.

“xKXVAAWTLKAAx: pan-DR-binding epitope peptide (SEQ ID NO: 16); X is cyclohexylalanine, phenylalanine or tyrosine”: the “binding to HLA-DR alleles” value is “bind to most HLA-DR alleles”. In addition, under “regardless of HLA type”, the “stimulation of the response of T helper lymphocytes” value is listed as “stimulate the response of T helper lymphocytes from most individuals”.
